In this series the test system is TCGA-OV cohort. Put plainly: TCGA-OV cohort analysis: survival and immune cell scores by aeTSA RNA expression and HLA allotype. More on the design: species or system human. The note with it: immune cell scores from RNA-Seq, ANOVA, p<0.05. The text has this: Clinical and genomic data from TCGA. Processed and normalized level 3 data with hg38 for HM27 methylation, DNA copy number variation, RNA-Seq gene expression as well as the clinical data were downloaded from the TCGA open-access database using the R package ‘TCGAbiolinks’ (31). Arm-level DNA copy number alterations were downloaded from Broad Institute TCGA Genome Data Analysis Center (doi:10.7908/C1P84B9Q).
Immune cell scores. Immune cell scores representing immune cell populations were estimated based on RNA-Seq data. For each tumor, scores were estimated as the average of log-transformed FPKM values of their marker genes as described by Danaher et al. (32).
Statistical analyses and data visualization. Analyses and figures were performed using the R v3.5.1 or Python v2.7.6. The ‘gplots’ package in R was used to generate heatmaps of TSA coding region expression in tumors. Correlation tests were done using R function ‘cor.test’ with the Spearman's method unless otherwise indicated. Tests involving comparisons of distributions were performed with ANOVA test, and pairwise comparisons between groups were performed by Wilcoxon rank sum test. Log-rank P values for survival analysis were calculated with the ‘survival’ package.

Peptide text beside a SMILES is read from it.

As to `CSCC[C@H](NC(=O)[C@H](CCC(N)=O)NC(=O)[C@H](Cc1c[nH]cn1)NC(=O)[C@@H](NC(=O)[C@@H](N)CCCNC(=N)N)[C@@H](C)O)C(=O)N[C@@H](CC(N)=O)C(=O)N[C@H](C(=O)N[C@@H](Cc1ccccc1)C(=O)N[C@@H](CCC(N)=O)C(=O)N[C@@H](CCCNC(=N)N)C(=O)O)[C@@H](C)O` (H-RTHQMNTFQR-OH; N-terminus and C-terminus assumed), the “correlation of aeTSA expression and relevant HLA allotype with tumor infiltration by T cells and cytotoxic T cells” value is reported as “positive correlation”.

The values above are taken from patent publication US12692289B2, “Tumor-specific peptide antigens for ovarian cancer and uses thereof” (UNIVERSITE DE MONTREAL, priority 2019, dated 2026).
